From patent US11046714B2, “2,2-difluorodioxolo A2A receptor antagonists” (Merck Sharp & Dohme Corp., priority 2013, dated 2021)

molecular target: human A2A receptor (Homo sapiens (Human), UniProt P29274); assay: competition binding assay using Scintillation Proximity technology; settings: membranes from CHO-K1 cells expressing the human A2a receptor; 2.0 nM tritiated compound; Cheng-Prusoff
Experimental: The utility of the compounds in accordance with the present invention as A2A receptor antagonists may be readily determined without undue experimentation by methodologies well known in the art, including by a competition binding assay using Scintillation Proximity technology. Briefly, membranes from CHO-K1 cells expressing the human A2A receptor are incubated with a test compound at various concentrations, e.g., ranging from 3000 nM to 0.15 nM, in a reaction mixture also containing a tritiated form of 5-amino-7-[2-phenethyl]-2-(furan-2-yl)-7H-pyrazolo[4,3-e][1,2,4]triazolo[1,5-c]pyrimidine (the tritiated compound) and wheatgerm agglutin-coated yttrium silicate SPA beads at room temperature. The beads are then allowed to settle to the bottom of the wells, after which the membrane-associated radioactivity is determined by scintillation counting in a microplate reader. Ki values can be determined using the Cheng-Prusoff equation.
Thus, 1.0 μg of membranes from CHO-K1 cells expressing the human A2a receptor were incubated with a compound of the invention at concentrations ranging from 3000 nM to 0.15 nM in a reaction mixture also containing 2.0 nM of a tritiated form of 5-amino-7-[2-phenethyl]-2-(furan-2-yl)-7H-pyrazolo[4,3-e][1,2,4]triazolo[1,5-c]pyrimidine (the tritiated compound) and 100 μg of wheatgerm agglutin-coated yttrium silicate SPA beads for one hour at room temperature with agitation. The beads were then allowed to settle to the bottom of the wells for 1 hr, after which the membrane-associated radioactivity was determined by scintillation counting in a TopCount microplate reader. Ki values were determined using the Cheng-Prusoff equation.
Summary of Materials and Methods Used in A2a Activity Determination:
• Membranes from CHO-K1 cells expressing the human Adenosine2A receptor (Perkin-Elmer #RBHA2AM400UA). • The tritiated compound was prepared according to published methods. • Wheatgerm agglutinin-coated yttrium silicate SPA beads (GE Healthcare #RPNQ0023). Dilute to 25 mg/ml in Assay Buffer. • Assay Buffer: Dulbecco's calcium and magnesium free phosphate buffered saline+10 mM MgCl2 • Adenosine deaminase (ADA) from calf intestine, 10 mg/2 ml (Roche #10 102 105 001). • DMSO • A2a antagonist standard (9-chloro-1-(2-furanyl)-[1,2,4]triazolo[1,5-c]quinazolin-5-amine from Tocris Bioscience) Compound Dilution • Make eight 1:3 serial dilutions in 100% DMSO from a 3 mM compound stock. • Transfer 50 nL of compound into a 384-well OptiPlate (Perkin Elmer). • Typically, final concentrations of compound used in the assay ranged from 3000 nM to 0.152 nM. Radioisotope • Dilute a solution of the tritiated compound to 5.0 nM in assay buffer. This is a 2.5× solution. The final concentration in the assay is 2.0 nM. Calculate the concentration by counting two 5 μL aliquots. Membrane Preparation • Use 1.0 μg of membrane/well. Dilute membranes to 33 μg/mL in assay buffer. Treat with 20 μg/mL ADA for 15 minutes at room temperature to degrade endogenous adenosine. Membrane-Bead Mixture • Use 100 μg/well wheatgerm agglutinin-coated yttrium silicate SPA beads. • Mix ADA-treated membranes and SPA beads together for 30 min prior to assay. Assay Assembly • To the Perkin-Elmer Optiplate-384 containing the compound titration add 20 μL of 2.5× solution of the tritiated compound and 30 μL of the membrane-bead mixture. Incubate for one hour at room temperature with agitation. • Include total binding (assay buffer+1% DMSO) and non-specific binding (CGS 15943, 1 μM) wells. Counting • Allow the beads to settle for one hour. • Count in TopCount. Calculations • A curve fitting program (i.e., Prism, Activity Base, Chemcart) is used to determine the EC50. The Ki value is calculated using the Cheng-Prusoff equation. Ki=EC50/(1+(radioligand concentration/Kd))

Chain of human A2A receptor (P29274 whole entry): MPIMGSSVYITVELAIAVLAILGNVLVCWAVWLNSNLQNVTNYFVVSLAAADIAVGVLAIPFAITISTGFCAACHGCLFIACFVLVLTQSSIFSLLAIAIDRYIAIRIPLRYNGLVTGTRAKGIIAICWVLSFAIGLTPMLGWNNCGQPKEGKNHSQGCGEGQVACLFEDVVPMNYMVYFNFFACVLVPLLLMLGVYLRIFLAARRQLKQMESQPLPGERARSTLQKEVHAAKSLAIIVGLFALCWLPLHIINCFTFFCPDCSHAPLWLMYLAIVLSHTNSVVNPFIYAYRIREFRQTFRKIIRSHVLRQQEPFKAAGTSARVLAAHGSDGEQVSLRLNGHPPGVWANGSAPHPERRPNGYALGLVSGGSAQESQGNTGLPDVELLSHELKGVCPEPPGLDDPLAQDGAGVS

SMILES	Ki
Nc1nc2c3c(ccc2c2nc(CCN4CCCC(F)(F)C4)nn12)OC(F)(F)O3 [Example 29, 8-[2-(3,3-difluoropiperidin-1-yl)ethyl]-2,2-difluoro[1,3] dioxolo[4,5-h][1,2,4]triazolo [1,5-c]quinazolin-5-amine]	1.6 nM
Nc1nc2c3c(ccc2c2nc(CCN4CC(F)C4)nn12)OC(F)(F)O3 [Example 15, 2,2-difluoro-8-[2-(3-fluoroazetidin-1-yl)ethyl] [1,3]dioxolo[4,5-h][1,2,4] triazolo[1,5-c]quinazolin-5-amine]	2.5 nM
CC1(F)CN(CCc2nc3c4ccc5c(c4nc(N)n3n2)OC(F)(F)O5)C1 [Example 16, 2,2-difluoro-8-[2-(3-fluoro-3-methylazetidin-1-yl)ethyl] [1,3]dioxolo[4,5-h][1,2,4] triazolo[1,5-c]quinazolin-5-amine]	3.2 nM
Nc1nc2c3c(ccc2c2nc(CCN4CC5CC4C(F)(F)C5)nn12)OC(F)(F)O3 (single isomer, unassigned) [Example 66, (R or S)-8-[2-(6,6-difluoro-2-azabicyclo[2.2.1]hept-2-yl)ethyl]-2,2-difluoro[1,3]dioxolo[4,5-h][1,2,4] triazolo[1,5-c]quinazolin-5-amine]	3 nM
Nc1nc2c3c(ccc2c2nc(CCN4CCN(CC5CC5)C(=O)C4)nn12)OC(F)(F)O3 [Example 48, 4-[2-(5-amino-2,2-difluoro[1,3]dioxolo[4,5-h][1,2,4]triazolo [1,5-c]quinazolin-8-yl)ethyl]-1-(cyclopropylmethyl)piperazin-2-one]	0.8 nM
CC1(F)CCCN(CCc2nc3c4ccc5c(c4nc(N)n3n2)OC(F)(F)O5)C1 (single isomer, unassigned) [Example 64, (R or S)-2,2-difluoro-8-[2-(3-fluoro-3-methylpiperidin-1-yl)ethyl][1,3] dioxolo[4,5-h][1,2,4]triazolo[1,5-c] quinazolin-5-amine]	7.7 nM
CCC1(F)CN(CCc2nc3c4ccc5c(c4nc(N)n3n2)OC(F)(F)O5)C1 [Example 17, 8-[2-(3-ethyl-3-fluoroazetidin-1-yl)ethyl]-2,2-difluoro[1,3] dioxolo[4,5-h][1,2,4]triazolo [1,5-c]quinazolin-5-amine]	3.5 nM
Nc1nc2c3c(ccc2c2nc(Cc4cccnc4N4CC[C@@H](c5ccc(C(F)(F)F)cc5)C4)nn12)OC(F)(F)O3 [Example 5, (S)-2,2-difluoro-8-((2-(3-(4-(trifluoromethyl)phenyl)pyrrolidin-1-yl)pyridin-3-yl)methyl)-[1,3]dioxolo[4,5-h][1,2,4]triazolo[1,5-c]quinazolin-5-amine]	15 nM
Nc1nc2c3c(ccc2c2nc(CCN4Cc5ccncc5C4)nn12)OC(F)(F)O3 [Example 11, 8-[2-(1,3-dihydro-2H-pyrrolo[3,4-c]pyridin-2-yl)ethyl]-2,2-difluoro[1,3] dioxolo[4,5-h][1,2,4]triazolo [1,5-c]quinazolin-5-amine]	2.1 nM
CC1N(CCc2nc3c4ccc5c(c4nc(N)n3n2)OC(F)(F)O5)CCCC1(F)F (single isomer, unassigned) [Example 68, (R or S)-8-[2-(3,3-difluoro-2-methylpiperidin-1-yl)ethyl]-2,2-difluoro[1,3]dioxolo[4,5-h][1,2,4] triazolo[1,5-c]quinazolin-5-amine]	1.2 nM
Nc1nc2c3c(ccc2c2nc(CCN4CC[C@@H](c5ccccc5)C4)nn12)OC(F)(F)O3 [Example 36, 2,2-difluoro-8-{2-[(3S)-3-phenylpyrrolidin-1-yl]ethyl}[1,3]dioxolo[4,5-h][1,2,4]triazolo[1,5-c]quinazolin-5-amine]	39 nM
Nc1nc2c3c(ccc2c2ncnn12)OC(F)(F)O3 [Example 1, 2,2-difluoro-[1,3]dioxolo[4,5-h][1,2,4]triazolo[1,5-c]quinazolin-5-amine]	12 nM
Nc1nc2c3c(ccc2c2nc(CCN4CCC(F)(F)CC4)nn12)OC(F)(F)O3 [Example 30, 8-[2-(4,4-difluoropiperidin-1-yl)ethyl]-2,2-difluoro[1,3] dioxolo[4,5-h][1,2,4]triazolo [1,5-c]quinazolin-5-amine]	2.6 nM
C[C@H](Cc1nc2c3ccc4c(c3nc(N)n2n1)OC(F)(F)O4)N1CCc2ccncc21 [Example 76, 8-[(2R)-2-(2,3-dihydro-1H-pyrrolo [2,3-c]pyridin-1-yl)propyl]-2,2-difluoro[1,3]dioxolo[4,5-h][1,2,4] triazolo[1,5-c]quinazolin-5-amine]	1.8 nM
CC1=CCN(CCc2nc3c4ccc5c(c4nc(N)n3n2)OC(F)(F)O5)CC1 [Example 41, 2,2-difluoro-8-[2-(4-methyl-3,6-dihydropyridin-1(2H)-yl)ethyl][1,3]dioxolo[4,5-h][1,2,4]triazolo[1,5-c]quinazolin-5-amine]	3.8 nM
Cc1nc2c(s1)CCN([C@H](C)Cc1nc3c4ccc5c(c4nc(N)n3n1)OC(F)(F)O5)C2 [Example 82, 2,2-difluoro-8-[(2R)-2-(2-methyl-6,7-dihydro[1,3]thiazolo[4,5-c]pyridin-5(4H)-yl)propyl][1,3] dioxolo[4,5-h][1,2,4]triazolo [1,5-c]quinazolin-5-amine]	1.5 nM

Results, then the compound that gave them:

Ki	SMILES
7.2 nM	Nc1nc2c3c(ccc2c2nc(CC4CCN(CCC(F)(F)F)C4)nn12)OC(F)(F)O3 (single isomer, unassigned) [Example 155, (R or S)-2,2-difluoro-8-{[1-(3,3,3-trifluoropropyl)pyrrolidin-3-yl]methyl}[1,3]dioxolo[4,5-h][1,2,4]triazolo[1,5-c]quinazolin-5-amine]
65 nM	Nc1nc2c3c(ccc2c2nc(CC4CN(C5CCC5)C4)nn12)OC(F)(F)O3 [Example 151, 8-[(1-cyclobutylazetidin-3-yl)methyl]-2,2-difluoro[1,3]dioxolo[4,5-h][1,2,4]triazolo[1,5-c]quinazolin-5-amine]
4 nM	Cc1ncc(N2CCN(Cc3nc4c5ccc6c(c5nc(N)n4n3)OC(F)(F)O6)[C@H](C)C2)s1 [Example 107, 2,2-difluoro-8-{[(2R)-2-methyl-4-(2-methyl-1,3-thiazol-5-yl)piperazin-1-yl]methyl}[1,3]dioxolo[4,5-h][1,2,4] triazolo[1,5-c]quinazolin-5-amine]
32 nM	Nc1nc2c3c(ccc2c2nc([C@H]4CC[C@@H](N5CCCC(F)(F)C5)C4)nn12)OC(F)(F)O3 [Example 161, 8-[(1S,3R)-3-(3,3-difluoropiperidin-1-yl)cyclopentyl]-2,2-difluoro[1,3]dioxolo[4,5-h][1,2,4]triazolo[1,5-c]quinazolin-5-amine]
5.3 nM	Nc1nc2c3c(ccc2c2nc(CC4CCN(CC(F)F)C4)nn12)OC(F)(F)O3 (single isomer, unassigned) [Example 156, (R or S)-8-{[1-(2,2-difluoroethyl)pyrrolidin-3-yl]methyl}-2,2-difluoro[1,3]dioxolo[4,5-h][1,2,4]triazolo[1,5-c]quinazolin-5-amine]
3.8 nM	Cc1cc2n(n1)CCN([C@H](C)Cc1nc3c4ccc5c(c4nc(N)n3n1)OC(F)(F)O5)C2 [Example 83, 2,2-difluoro-8-[(2R)-2-(2-methyl-6,7-dihydropyrazolo[1,5-a]pyrazin-5(4H)-yl)propyl][1,3]dioxolo[4,5-h] [1,2,4]triazolo[1,5-c]quinazolin-5-amine]
4 nM	CC(Cc1nc2c3ccc4c(c3nc(N)n2n1)OC(F)(F)O4)N1Cc2cccnc2C1 (single isomer, unassigned) [Example 92, 8-[(2R or 2S)-2-(5,7-dihydro-6H-pyrrolo[3,4-b]pyridin-6-yl)propyl]-2,2-difluoro[1,3]dioxolo[4,5-h][1,2,4]triazolo[1,5-c]quinazolin-5-amine]
